Values joined by “and” are separate entries in the source; they are usually repeats but may differ in a detail not shown here. Equal values may be shown once. “Also recorded” adds a separate entry of the source. Read-outs that look alike come from different tables or passages of the source.
Legend:
HSV-1 [1] = experiment: HSV-1 DNA replication in the presence of drug (Southern/slot blot); assay type: cell-based, HSV-1 Glasgow strain 17
Description: (i) DNA preparation. Vero cells infected with MOI of 5 were infected and maintained in the presence and absence of 50 μg/ml CTC-96. Infected cells were harvested by freezing (−80° C.) at the indicated times postinfection. Total infected cell DNA was extracted as described (54).
(ii) Slot blot analysis. Slot blot analysis was performed as previously described (55). Briefly, equal amounts of nuclear or cytoplasmic infected cell DNAs were blotted onto GeneScreen Plus using a MINIFOLD II Slot Blot System (Schleicher and Schuell, Keene, N.H.) and cross-linked with a Stratalinker 2400 (Stratagene, La Jolla, Calif.) using UV-irradiation. A 4.5 kB SalI-DdeI fragment from the α4 gene of HSV-1 which had been labeled with [α-32P]dCTP (NEN Life Sciences Products, Boston, Mass.) by random priming (Boehringer Mannheim, Indianapolis, Ind.) was hybridized to the nuclear and cytoplasmic DNAs and washed as specified by the manufacturer. Bands were visualized using autoradiography.
A series of experiments were initiated to determine the point in the replication cycle where CTC-96 acts. Our first study examined the effects of drug on replication of virus DNA. Cells were infected at an moi of 5 in the presence of the absence of drug and harvested by trypsinization at 1 and 9 hr post infection. Virus DNA was extracted from cells by selective salt precipitation and the amount of virus-specific DNA was assayed after transfer to a nitrocellulose membrane by Southern blot hybridization using a phophorimager to quantitate signal.
Cells were infected and at various intervals drug was added and left on the infected cell cultures until 24 hr pi. At this time samples were harvested and DNA extracted and analyzed as described above. […] By 12 hr post infection the bulk of DNA replication is complete as there is only a small difference between the hybridization signal generated in an untreated 24 hr sample when compared with a sample treated at 12 hr and analyzed at 24 hr post infection (FIG. 13).

HSV-1 [2] = experiment: Accumulation of virus-specified proteins (Western blot); assay type: cell-based, HSV-1 Glasgow strain 17
Description: Protein preparation and western blot analysis were performed as previously described (54). Briefly, at the indicated times the infected cells were collected by centrifugation, resuspended in 1.5×SDS-PAGE sample buffer, and boiled for 10 min. The proteins were separated by SDS-PAGE and electrophorectically transferred to nitrocellulose membranes. Immunodetection of proteins was performed using the following antibodies: ICP0, rabbit polyclonal antibody CLU7 (54); ICP27, rabbit polyclonal antibody CLU38 (54); glycoprotein B (gB), rabbit polyclonal antibody R69 (provided by T. Kristie, National Institute of Allergy and Infectious Diseases) [Zhang, et al. 1991]; and _TIF, rabbit polyclonal antibody anti-VP16 (Clontech Laboratories Inc., Palo Alto, Calif.). The secondary antibodies used were goat anti-rabbit and goat anti-mouse IgG conjugated to horseradish peroxidase (Kirkegaard and Perry Laboratories, Inc., Gaithersburg, Md.). Immunoblots were developed as previously described (55).
Accumulation of Virus-Specified Proteins in the Presence of Drug. Failure to efficiently replicate virus DNA could result from a specific block of replication per se or because virus-specified gene expression is affected by drug. To address this issue cells were infected with HSV-1 at an moi of 5, 50 μg/ml of drug was either added at time 0, 1 hr pi or not added and at intervals post infection the infected cells were harvested and proteins were extracted and assayed for the presence of virus specified polypeptides by Western blot. […] The residual reactivity with ∝-TIF in the sample treated at T=0 results from protein associated with the infecting virions. There is no increase in the accumulation of this protein during the course of infection. It is not possible to exclude the possibility that virus never enters these cells and that the ∝-TIF that is detected results from cell associated virus.

HSV-1 [3] = assay type: cell-based, HSV-1 Glasgow strain 17
[4] = system: vesicular stomatitis virus (VSV); assay type: cell-based, VSV strain Indiana
poliovirus = assay type: cell-based, poliovirus strain P1 Mahoney
HSV-1 [5] = system: HSV-1
HSV-1 [6] = conditions: in vivo; cited from earlier work
HSV-1 and 2 = conditions: cited from earlier work

Compound: CC(/C=C(/C)[O-])=NCCN=C(C)/C=C(/C)[O-].Cc1ncc[nH]1.Cc1ncc[nH]1.[Br-].[Co+3] [CTC-96]
- virus DNA associated with infected cells at 1 hr post infection, versus no drug (HSV-1 [1]; 50 μg/ml from onset, harvest 1 hpi): no detectable difference; also recorded: equivalent amount of virus DNA
- virus DNA replication on temporal addition of drug (HSV-1 [1]; drug added at various times post infection, harvest 24 hr pi): increasingly more virus DNA replication as drug is added at later times post infection; also recorded: the amount of virus DNA replication increased
- increase in accumulation of virus DNA from 1 to 9 hr post infection (HSV-1 [1]; drug treated, moi 5): barely a two-fold increase
- accumulation of virus-specified proteins (HSV-1 [2]; 50 μg/ml added 1 hr pi / after initiation of infection): only a small effect; also recorded: little or no effect
- accumulation of gB (early) and α-TIF (late) (HSV-1 [2]; 50 μg/ml added at time 0): no measurable accumulation
- synthesis of ICP0 and ICP27 (immediate early) (HSV-1 [2]; 50 μg/ml added at time 0): little if any synthesis
- accumulation of virus proteins of all kinetic classes (HSV-1 [2]; 50 μg/ml present from the initiation of infection): prevented the accumulation of gene products from all kinetic classes; also recorded: prevents synthesis of all kinetic classes of virus proteins
- syncytia formation by a syncytia forming virus (HSV-1 [3]; CTC-96 added at 1 or 10 hpi): unable to form syncytia
- cell-to-cell spread (multi-celled foci) (HSV-1 [3]; CTC-96 added at 8 hpi): unable to form multi-celled foci
- inhibition of VSV ([4]; 50 μg/ml, Vero cells): 100%
- % Inhibition ([4]; VSV (Indiana), Vero, 50 μg/ml of CTC-96, plaque assay): 100%
- VSV plaques ([4]; dilution −5, 50 μg/ml CTC96): 0
- VSV plaques ([4]; dilution −6, 50 μg/ml CTC96): 0
- VSV plaques ([4]; dilution −7, 50 μg/ml CTC96): 0
- % Inhibition (poliovirus; Poliovirus (P1/Mahoney), HeLa, 50 μg/ml of CTC-96, plaque assay): 40%
- inhibition of poliovirus (poliovirus; first run, 50 μg/ml): 42%
- plaques recovered relative to −CTC-96 (poliovirus; first run, 50 μg/ml): 58%
- poliovirus plaques (poliovirus; first run, dilution −6, 50 μg/ml in diluent, no drug in overlay): 91 and 80
- poliovirus plaques (poliovirus; first run, dilution −7, 50 μg/ml in diluent, no drug in overlay): 10 and 9
- poliovirus plaques (poliovirus; first run, dilution −8, 50 μg/ml in diluent, no drug in overlay): 0
- inhibition of poliovirus (poliovirus; second run, 50 μg/ml): 42% inhibition
- poliovirus plaques (poliovirus; second run, dilution −6, 50 μg/ml, drug also in overlay): 165
- poliovirus plaques (poliovirus; second run, dilution −7, 50 μg/ml, drug also in overlay): 18 and 16
- % Inhibition (HSV-1 [5]; HSV-1 (17), Vero, 50 μg/ml of CTC-96, plaque assay): 100%
- No. of Plaques (HSV-1 [5]; Initial [Drug] 0.016 μg/ml, Final [Drug] 0.016 μg/ml): 114
- No. of Plaques (HSV-1 [5]; Initial [Drug] 50 μg/ml, Final [Drug] 0.0083 μg/ml): 46
- No. of Plaques (HSV-1 [5]; Initial [Drug] 50 μg/ml, Final [Drug] 50 μg/ml): 0
- No. of Plaques (HSV-1 [5]; Initial [Drug] 100 μg/ml, Final [Drug] 0.0016 μg/ml): 23
- No. of Plaques (HSV-1 [5]; Initial [Drug] 100 μg/ml, Final [Drug] 100 μg/ml): 0
- resistance to HSV-1 after prior incubation of Vero cell monolayers (HSV-1 [5]; cells preincubated with 50 μg/ml CTC-96): partial resistance
- HSV-1 plaque formation (HSV-1 [5]; concentrations of CTC-96 >50 μg/ml): completely inhibited
- HSV-1 plaque formation (HSV-1 [5]; dilution of the drug after adsorption of the virus): only partially inhibited
- plaque formation / infectivity after prior exposure of the virus to the drug (HSV-1 [5]; virus incubated with 50 μg/ml 30 min, drug diluted prior to adsorption): no effect on plaque formation; also recorded: slightly reduced the infectivity
- virus survived treatment (HSV-1 [5]; virus suspension treated with drug 1 min, then diluted to final <1 ng/ml): ~50%
- HSV-1 plaque formation (HSV-1 [5]; ≧50 μg/ml of CTC-96): completely inhibited
- effect on HSV-1 keratitis in the rabbit eye model (HSV-1 [6]): reduce the corneal surface level of HSV-1 and facilitate the recovery from dendritic keratitis; also recorded: most potent inhibitory effect
- HSV-1 production in tissue culture (HSV-1 and 2): effective in inhibiting HSV-1 production
- rank among the CTC compounds against HSV (HSV-1 and 2; comparison of several CTC complexes): least cytotoxic and most effective of the CTC compounds; also recorded: most potent inhibitor of HSV-1 in tissue culture and in the rabbit eye model
